{"source": "patent US11767352B2", "about": "“Histone anti-cancer vaccines” (DEUTSCHES KREBSFORSCHUNGSZENTRUM, priority 2015, dated 2023)", "key": {"A2.DR1 mice [1]": {"system": "A2.DR1 mice", "assay": "Flow cytometry detection of peptide-specific CD8 T-cells with HLA-A2 dextramer after vaccination of A2.DR1 mice", "type": "in vivo", "conditions": "splenocytes after vaccination in Montanide, gated on CD45+ CD3+ cells", "from_the_text": "(§1) Numbers of spots to MOG35-55 as negative control were subtracted. Mean+/−s.e.m. of n=4 mice per group and representative ELISpots are shown. **p<0.01. (B/C): H3.3-peptide libraries are used to assess MHC binding epitopes in silico: MHC peptide binding predictions for H3.3 K27M (red)- and K27 wt (blue)-containing 10-mer peptides to HLA-A*02:01 using NetMHC algorithm (B) and MHC peptide binding analysis for H3.3 K27M26-35 (red) or K27 wt26-35 (blue) depending on MHC-class-I haplotype (C). Peptides with logscore affinity >0.4 are defined as potential binders. […] Re-stimulation with the vehicle DMSO served as control; gated on CD45+ CD3+ CD8+ cells.\n(§2) As antigen presentation and induction of an effective immune response is critically dependent on MHC haplotype, binding affinities of K27M26-35 to the most frequent class I haplotypes were analyzed. […] Thus, anti-tumor efficacy of H3.3 K27M peptide vaccination was further investigated in a syngeneic HLA-A*02 tumor model."}, "A2.DR1 mice [2]": {"system": "A2.DR1 mice", "assay": "Intracellular flow cytometry of splenocyte IFNγ responses after vaccination of A2.DR1 mice", "type": "in vivo", "conditions": "for IFNγ+ CD8+ T-cell response (intracellular flow cytometry): vaccination with peptide in Montanide, re-stimulation with K27M26-35 or K27 wt26-35, gated on CD45+ CD3+ CD8+ cells", "from_the_text": "as §1, §2"}}, "data": [{"sequence": "RMSAPSTGGV (listed as Homo sapiens) [K27M26-35, peptide corresponding to amino acids 26-35 of K27M Histone H3.3]", "values": [{"measurement": "peptide-specific CD8+ T-cells detected with HLA-A2 dextramer", "setting": "A2.DR1 mice [1]", "value": "could be detected directly"}, {"measurement": "peptide-specific CD8+ T-cells detected with HLA-A2 dextramer", "setting": "A2.DR1 mice [1]; listed as H3.3 K27M26-35", "value": "CD8-positive T-cells are detected with HLA-A2 multimers"}, {"measurement": "immune response, HLA-A*02 restricted (summary statement)", "setting": "A2.DR1 mice [2]; according to the examples", "value": "surprisingly strong immune response"}, {"measurement": "IFNγ+ CD8+ T-cell response (intracellular flow cytometry)", "setting": "A2.DR1 mice [2]", "value": "induced IFNγ^+CD8^+-driven mutation-specific cytotoxic T-cell responses"}, {"measurement": "IFNγ+ CD8+ T-cell response (intracellular flow cytometry)", "setting": "A2.DR1 mice [2]; listed as H3.3 K27M26-35", "value": "induces a mutation-specific CD8-driven T-cell response"}]}]}
